Experimental data as given in patent publication US9278924B2, “5-nonyloxytryptamine and related intracellular PH acidifiers for the treatment and prevention of cancer” (THE JOHNS HOPKINS UNIVERSITY, priority 2011, dated 2016).
Where a name gives a salt, the structure may show the parent alone. The star is where a group is joined. Cbz = O=C(OCc1ccccc1)*; CH2F = FC*

What was measured:
[1] = test system: GBM neurospheres; assay: Elimination of viable cells at high 5-NOTO level; format: cell-based; details: 48 h, read-out: viable cells eliminated
Experimental: (§1) 5-NOTO Induces Apoptosis in GBM Neurospheres. To ascertain that 5-NOTO induces apoptosis, cells were treated with DMSO (control), 1 μM, and 10 μM 5-NOTO for 24 hours at which point cells were processed for Annexin V apoptosis assay (Millipore), which is a simple and effective method to detect one of the earliest events in apoptosis, the externalization of phosphatidylserine in living cells. […] Higher levels of 5-NOTO (100 μM) eliminated the vast majority of viable cells (80-90%) 48 hours post treatment (Data not shown)).

[2] = test system: GBM neurospheres; assay: Guava ViaCount cell viability, IC50 determination; format: cell-based; details: 48 hours, all neurospheres tested; read-out: IC50 (concentration required to kill 50% of the cells)
Experimental: Cells were treated for 48 hours with various concentrations of 5-NOTO and incubated for 48 hours in humidified incubator as which point, Guava Viacount reagent (Millipore) was used to assess the percentage of viable cells remaining in each treatment well. IC50 (concentration of drug required for 50% reduction in cell viability) was calculated using Graphpad 5.0 software package. The respective IC50 is indicated for each neurosphere line.
Determination of cytotoxic effects. We next sought to determine the concentration of 5-NOTO which is required to kill 50% of the cells (e.g. IC50). Cells were plated in 24-well plates at 25,000 cells/well and treated for 48 hours with either DMSO (control) or various concentration of 5-NOTO (FIG. 2). Guava PCA flow cytometry system was used with the Guava Viawunt reagent (Millipore) to determine cell viability. Data was analyzed using GraphPad 5.0 software package. IC50 was calculated using non linear regression.

[3] = test system: 040622 GBM neurospheres; assay: Apoptosis/necrosis evaluation with Guava Nexin reagent, 30 minutes; format: cell-based
Experimental: Cells were treated with DMSO (control), the multi caspase inhibitor Z-VAD-FMK (20 μM), 5-NOTO (10 μM) or the latter two in combination. Guava Nexin assay reagent was used to determine Viable (black), apoptotic (yellow), and necrotic/apoptotic (Red) cell fractions.
To test necrotic cell death directly, cells were treated with DMSO (control) or 10 μM 5-NOTO for 30 minutes followed by apoptosis/necrosis evaluation using Guava PCA flow cytometer and Nexin reagent (Millipore). […] Similar results were documented for 020913 and 040821 neurospheres (not shown).

[4] = test system: GBM-derived neurosphere line 020913; assay: Guava ViaCount viability assay; format: cell-based; details: 48 h, read-out: percent viability
Experimental: (§2) Cells were plated in 24-well plates and treated with DMSO or t 10 μM 5-NOTO. 48 hours later, cell viability was determined using Guava PCA flow cytometer with Guava ViaCount reagent.
(§3) We next sought to examine if 5-NOTO is generally cytotoxic or if its cytotoxicity may be specific to some cancer types. To this end, we examined the apoptotic induction in a uveal melanoma cell line, OCM 1. Cells were treated for 48 hours with 10 μM of 5-NOTO followed by Viacount assay. 5-NOTO had no effect on viability of OCM1 as the percentage of viable cells remained greater than 90% (FIG. 8). In contrast, percent viability in 020913 neurospheres treated with 10 μM 5-NOTO was only 10%.

[5] = Guava ViaCount viability assay; format: cell-based; details: human, uveal melanoma cell line OCM1, read-out: percentage of viable cells
Experimental: as §2, §3

[6] = molecular target: 5HTR1B serotonin receptor (Homo sapiens, UniProt P28222); details: agonist; cited from earlier work
[7] = test system: GBM neurosphere lines; assay: cAMP GLO assay of cellular cAMP levels; format: cell-based; details: three GBM neurosphere lines
Excerpt: In this assay cAMP levels are inversely correlated with luminescence (RLU). Cyanopindolol is a Gα antagonist and is required for detection of 5HTR1B activity. Sumatriptan, another 5HTR1B agonist (similar to 5-NOTO), and forskolin {a known Gα agonist) were used as controls.
The Serotonin Receptors 5HTR1B and 5HTR1A are Not the Target Of 5-NOTO Action in GBM. 5-NOTO is not an FDA approved drug but its biological target is known. 5-NOTO is a specific agonist for the 5HTR1B serotonin receptor (400 times more specific for 5HTR1B then for 5HTR1A). 5HTR1B (as well as other 5HTR1 isoforms) are heterotrimeric G-protein coupled receptors which interact with Gα an inhibitor of adenylate cyclase. Therefore, we sought to determine if treatment with 5-NOTO will result in decreased cellular cAMP levels as activation of Gα should inhibit adenylate cydase, the enzyme which catalyzes the conversion of ATP to cAMP. To this end, cells were treated with cyanopindolol, an antagonist of 5HTR1B, which should increase adenylate cyclase activity (if 5HTR1B is functional), and either 5-NOTO or sumatriptan, the latter being similar to 5-NOTO, activating both 5HTR1B and 5HTR1A. […] Importantly, sumatriptan also had no effect on cellular cAMP levels, strengthening the notion that 5HTR1B (and likely 5HTR1A) have very little to no effect on cellular cAMP levels in the GBM models.

[8] = test system: normal neural stem cells immortalized with v-Myc (VNSC); assay: Necrosis by Nexin staining and flow cytometry, 90 minutes; format: cell-based; details: 10 μM, DMSO 26%
Experimental: (§4) FIG. 9 depicts induction of necrotic cell death by 5-NOTO. GBM neurospheres 020913 and 040622 and normal neural stem cells immortalized with v-Myc (VNSC) were treated with DMSO (control, black bars) or with 10 μM 5-NOTO (red bars). Cells were treated for 90 minutes and then processed for viability assay using Nexin staining % Necrosis was determined by flow cytometry. […] VNSCs on the other hand were completely resistant to 5-NOTO showing 26% and 25% in DMSO and 5-NOTO treatments, respectively.
as §4, with “Induction” for “FIG. 9 depicts induction”, “Necrotic Cell Death” for “necrotic cell death”, “5-NOTO.” for “5-NOTO (red bars).”

[9] = test system: GBM neurospheres 020913; assay: as above; format: cell-based; details: 10 μM, DMSO 13%
Experimental: as §4
as §4, with “Induction” for “FIG. 9 depicts induction”, “Necrotic Cell Death” for “necrotic cell death”, “5-NOTO.” for “5-NOTO (red bars).”

[10] = test system: GBM neurospheres 040622; assay: as above; format: cell-based; details: 10 μM, DMSO 5%
Experimental: as §4
as §4, with “Induction” for “FIG. 9 depicts induction”, “Necrotic Cell Death” for “necrotic cell death”, “5-NOTO.” for “5-NOTO (red bars).”

[11] = test system: 020913 GBM neurospheres; assay: Annexin V apoptosis assay; format: cell-based; details: 10 μM, 24 hours; DMSO 10-20%
Experimental: (§5) FIG. 4 depicts apoptosis analysis for GBM neurospheres treated with 5-NOTO for 24 hours. Cells were plated and then treated for 24 hours with DMSO (control), 1 μM and 10 μM 5-NOTO. Cells were then processed for Annexin V assay using the Nexin reagent (Millipore) and % Annexin positive cells was determined using flow cytometry.
as §1

[12] = test system: 040821 GBM neurospheres; assay: Annexin V apoptosis assay; format: cell-based; details: 10 μM, 24 hours; DMSO 10-20%
Experimental: as §5, §1

[13] = test system: 040622 GBM neurospheres; assay: Annexin V apoptosis assay; format: cell-based; details: 10 μM, 24 hours; DMSO 10-20%
Experimental: as §5, §1

[14] = test system: GBM-derived neurosphere cell lines; assay: MTT growth assay; format: cell-based; details: 72 h, read-out: inhibition of growth (viable cell mass, MTT)
Experimental: FIG. 2 depicts MTT growth assays for neurospheres treated with 5-NOTO. Cells were plated in 96-multiwell plates and treated with either DM50 (Control •) or 5-NOTO (at 1 uM ▪ and 10 μM ▴). MTT reagent was added to indirectly measure viable cell mass at each time point. Absorbance was measured wt 490 nm using an Epoch Microplate Spectrophotometer (BioTek).
5-NOTO is a Potent Inhibitor of Cancer Cell Growth. To test the hypothesis that as a pH acidifier, 5-NOTO should reduce cell proliferation, we treated three independent GBM-derived neurosphere cell lines with DMSO (control), 1 μM, and 10 μM 5-NOTO for three days. Accumulation of viable cell mass was measured using MTT growth assay (Promega). Absorbance (A490) was measured using an Epoch Microplate Spectrophotometer (Biotek) at the indicated time points.

[15] = test system: 020913 neurospheres; assay: ATPlite luminescence assay of cellular ATP; format: cell-based; details: 1 μM and 10 μM, 1 or 3 hours
Experimental: Cells were incubated for either 1 or 3 hours in the presence of DMSO (control) or 5-NOTO (1 μM and 10 μM), ATP levels were determined using ATPlite Luminescence Assay System (PerkinElmer) according to manufacturer instructions.
5-NOTO Induces Rapid Necrosis in GBM Neurospheres. One of the classical features of necrotic cells is rapid and significant drop in intracellular ATP levels. The effect of 5-NOTO on ATP release was assayed at 1 hr and 3 hr post-treatment as follows. Briefly, 020913 neurospheres were triturated to a single-cell suspension and 20,000 cells were plated per well. Cells were plated in triplicates for vehicle alone, 1 μM 5-NOTO, and 10 μM 5-NOTO. At each time point, 100 μl of ATPlite 1-step reagent (Perkin Elmer) was added to each well and incubated with shaking for 2 minutes. After dark adaptation for 10 minutes, the samples were read using a microplate reader (Perkin Elmer). Readings were averaged and the percent differences in ATP release between treated and vehicle alone were calculated (RLU). This experiment was performed in triplicate with similar results (FIG. 6).

Chain of 5HTR1B serotonin receptor (P28222 whole entry): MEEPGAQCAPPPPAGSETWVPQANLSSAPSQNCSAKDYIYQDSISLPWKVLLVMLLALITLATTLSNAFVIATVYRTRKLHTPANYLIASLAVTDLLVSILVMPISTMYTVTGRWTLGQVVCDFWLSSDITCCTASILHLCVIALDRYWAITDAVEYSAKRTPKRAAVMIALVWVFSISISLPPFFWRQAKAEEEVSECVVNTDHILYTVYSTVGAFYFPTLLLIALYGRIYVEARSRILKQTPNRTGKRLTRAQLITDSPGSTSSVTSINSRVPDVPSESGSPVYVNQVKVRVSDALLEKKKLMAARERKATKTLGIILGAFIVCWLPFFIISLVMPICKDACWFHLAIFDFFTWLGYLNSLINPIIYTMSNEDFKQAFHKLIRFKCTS

CCCCCCCCCOc1ccc2[nH]cc(CCN)c2c1 [5-NOTO, 5-nonyloxytryptamine oxalate]
cytotoxicity at 100 µM [1]: 80 to 90% | IC50 [2]: ~10 µM | necrotic/dead fraction ([3]; 10 μM, 30 minutes, DMSO 15.83%): 54.17% | viability at 10 µM [4]: 10% | viability at 48 h, 10 µM [5]: > 90% | specificity for 5HTR1B over 5HTR1A [6]: 400 times | effect on cellular cAMP levels [7]: not affected | % necrosis [8]: 25% | % necrosis [9]: 56% | % necrosis [10]: 65% | apoptotic cell fraction (Annexin V positive) [11]: > 80% | apoptotic cell fraction (Annexin V positive) [12]: > 70% | apoptotic cell fraction (Annexin V positive) [13]: more than 60% | cytotoxicity at 10 µM [14]: > 90% | effect on cellular ATP levels [15]: depletes cellular ATP levels in a time and dose dependent fashion

CC(C)(C)NCC(O)COc1cccc2[nH]c(C#N)cc12 (stereo not drawn) [Cyanopindolol, cyanopindolol]
effect on cellular cAMP levels [7]: not affected

CNS(=O)(=O)Cc1ccc2[nH]cc(CCN(C)C)c2c1 [sumatriptan]
effect on cellular cAMP levels [7]: no effect

Cbz-Val-Ala-Asp-CH2F [reference compound]
effect on 5-NOTO-induced necrotic/dead cell fraction ([3]; pre-treatment with 20 μM Z-VAD-FMK, then 10 μM 5-NOTO): no effect
